Read-outs that look alike come from different tables or passages of the source.
How the values were obtained:
Caribbean reef sharks = experiment: Cloud dispersion assay (cloud - co2); format: in vivo, C. perezii; settings: for Comments (effect on shark population): cloud, 500 mL
Description: Another bioassay used to observe a flight response in sharks is a cloud dispersion assay on competitively feeding population of sharks. This assay is referred to as a “Cloud Dispersion Assay” or “Cloud Assay.” A pressurized fluid delivery system was designed to deliver repellent into large feeding populations of sharks. The repellent is released as a subsurface cloud, which follows the current. A 1 L plastic container containing the test chemical repellent solution is pressurized to approximately 20 psig with a battery compressor or hand pump. A globe valve is used to hold back the fluid. The fluid is delivered to the end of a long PVC pole using a Teflon tubing. This allows the operator to place the tip of the pole well into a population of feeding sharks. By actuating the small globe valve, a cloud of the chemical solution is released quickly and reliably into the feeding population. Controls are established using FD&C Red 40 dye and seawater, uncolored seawater, and air. These controls establish that sharks are not afraid to approach the delivery pole, nor are sharks deterred from feeding by the jet of control fluid or air.
Syringe 3/5/10, Hd Syringe and Micropipette assays were carried out as described in Examples 1 and 2.

lemon sharks [1] = experiment: Tonic immobility, Hd Syringe Assay; format: in vivo, N. brevirostris; settings: lemon sharks
Method: (§1) One bioassay used to observe and measure flight response is the tonic immobility test. Tonic immobility is a state of paralysis that typically occurs when a shark is subject to inversion of its body along the longitudinal axis. This state is called “tonic,” and the shark can remain in this state for up to 15 minutes thereby allowing researchers to observe effects of chemical repellents. The “tonic” state of the shark is first established by releasing seawater in proximity to the “tonic” shark with the same delivery instrument and at the same distance as a “test” repellent compound will be released. Some controls are released with a high flow rate (30 mL/sec) in order to establish that sharks are not awakened by a jet of fluid over their noses. Once behavioral controls are established, a compound or composition that may have a repelling effect is delivered to the shark. If the compound or composition engenders a flight response, the shark will awaken from the tonic state and rapidly attempt to flee the delivered repellent. Using this tonic immobility bioassay researches can quantify the strength of a repellent effect.
(§2) Lemon, nurse, blacktip and tiger sharks were placed in tonic immobility by inverting the shark's body along its longitudinal axis. […] The “tonic” state of each shark was first established by releasing a control of seawater in proximity to the shark with the same delivery instrument and at the same distance as the chemical repellent would later be delivered. In certain controls, sea water was released with a high flow rate (30 mL/sec) in order to establish that the sharks would not be awakened by a jet of fluid over their noses.
Once behavioral controls were established, the chemical repellent was delivered to the shark using the Hd Syringe Assay method, the Syringe 3/5/10 Assay method, the Bite Assay method or the Micropipette Assay method. […]

nurse sharks [2] = experiment: Tonic immobility, Hd Syringe Assay; format: in vivo, C. cirratum; settings: juvenile nurse shark
Method: as §1
Lemon, nurse, blacktip and tiger sharks were placed in tonic immobility by inverting the shark's body along its longitudinal axis. […]

blacktip sharks = experiment: Tonic immobility, Syringe 3/5/10 Assay; format: in vivo, C. limbatus
Method: as §1
(§3) In the tonic immobility studies disclosed herein, several different methods were employed for delivery of repelling compounds. A first method for delivery of chemical repellent in tonic immobility studies employed a “Syringe 3/5/10 Assay” method. The “Syringe 3/5/10 Assay” method is so named because a test repellent is delivered to a shark from a distance of about “3” inches with a bolus of about “5” mL with a response to the test repellent considered positive if the shark reacts with a change in behavior within less than about “10” seconds from the time of delivery.
(§4) The “3/5/10 Syringe Assay” as employed herein delivered a dose of 5-6 mL of a test chemical repellent from a syringe fixed with a needle having a gauge of about 22 from a distance at least 3 inches in front of a shark. Because the test chemical repellent was delivered at a distance from the shark's nares and mouth, a cloud of test chemical repellent was dispersed over the shark within the water column. The dispersed test repellent was subject to water current direction, dispersion and dilution. As a result, a flight response within 10 seconds was considered a positive repellency response. […] Time from delivery to response is related to the size of the bolus delivered from the syringe, distance of the shark from the syringe and water current.
as §2
(§5) Once behavioral controls were established, the chemical repellent was delivered to the shark using the Hd Syringe Assay method, the Syringe 3/5/10 Assay method, the Bite Assay method or the Micropipette Assay method. […] If tonic immobility was terminated, the positive response was denoted as “Y.” If tonic immobility was not terminated but a behavior change within tonic immobility was noted, such as the opening of the mouth or a cough, the response was denoted as an “R” for reduced response. If no behavior change was observed, the negative response was denoted “N.”
In Syringe 3/5/10 Assays, 5-6 mL of 3-methylbutanal was delivered at least 3 inches in front of the shark's mouth. A cloud of the repellent dispersed over the shark within the water column. […] As noted above, because the dispersion of the chemical repellent upon delivery is affected by volume of repellent, water current, and other factors, the time between delivery and response was not correlatable with the potency of the repellent. […]

[3] = test system: sharks (lemon, nurse, tiger pooled); experiment: Tonic immobility, Hd Syringe Assay, summary over species; format: in vivo; settings: species pooled
Method: as §1
In Hd-Syringe Assays, the 3-methylbutanal was delivered to the shark's mouth and nares using a 3 mL hypodermic syringe fitted with a 22 gauge needle. The needle was held within 3 inches of the shark's mouth and the test repellent was slowly released from the syringe with a very fine plume in the water column. Any response was denoted. If a response occurred during a measurable time after delivery of the test chemical, the time between delivery and response was noted. If a response occurred immediately or the response occurred before a measurable time could be established, no time to response was noted.

nurse sharks [4] = experiment: Tonic immobility, Syringe 3/5/10 Assay; format: in vivo, C. cirratum; settings: Table 24; nurse shark; syringe 3/5/10 delivery; 6 ml; mouth
[5] = test system: juvenile lemon and nurse sharks; experiment: Tonic immobility, Micropipette Assay, summary over species; format: in vivo; settings: for Micropipette Y (termination of tonic immobility), trials of trials: juvenile lemon and nurse sharks, oral dose
Method: as §1
(§6) A fourth method of delivery was called the “Micropipette Assay” method of delivery. In this method, a very small dose (fraction of a mL) of a test substance was delivered directly into a shark's mouth. […] A response, such as a cough or other notable action of the shark, was usually noted when effective gustatory repellents were delivered directly into a shark's mouth while in tonic immobility.
(§7) The Micropipette Assay method has not proven to be a particularly effective method of assaying for a flight response in elasmobranchs. The Micropipette Assay method is, nevertheless, an excellent method for specifying that a gustatory response has occurred. It is effective for specifying a gustatory response because the micropipette delivery method allows direct delivery of an entire bolus of test substance into the mouth of the shark being tested.
An oral dose of no more than 400 microliters was then delivered by micropipette into the mouth of a juvenile nurse shark. Tonic immobility was terminated. For each derivative of butyric acid and each naturally occurring acid listed in Table 9, a first micropipette assay was performed on a juvenile lemon shark with no more than 100 microliters of test acid in an oral dose. A second micropipette assay was then performed on a juvenile nurse shark with no more than 400 microliters of test acid in an oral dose. In each test, tonic immobility was terminated.
In a first set of studies on the effectiveness of carboxylic acids as elasmobranch repellents, each tested substance was subjected to the following protocol. […] An oral dose of no more than 400 microliters was then delivered by micropipette into the mouth of a juvenile nurse shark. Tonic immobility was terminated. […] The data evidences the gustatory repelling activity of carboxylic acids.

nurse sharks [6] = experiment: Tonic immobility, Micropipette Assay; format: in vivo, C. cirratum
Method: as §1, §6
The Micropipette Assay method has not proven to be a particularly effective method of assaying for a flight response in elasmobranchs. The Micropipette Assay method is, nevertheless, an excellent method for specifying that a gustatory response has occurred. It is effective for specifying a gustatory response because the micropipette delivery method allows direct delivery of an entire bolus of test substance into the mouth of the shark being tested. […]

[7] = test system: sharks (lemon, nurse, blacktip, tiger, blacknose pooled); experiment: Tonic immobility, Syringe 3/5/10 Assay, summary over species; format: in vivo
Method: as §1, §3, §4
In Syringe 3/5/10 Assays, 5-6 mL of 3-methylbutanal was delivered at least 3 inches in front of the shark's mouth. A cloud of the repellent dispersed over the shark within the water column. […] As noted above, because the dispersion of the chemical repellent upon delivery is affected by volume of repellent, water current, and other factors, the time between delivery and response was not correlatable with the potency of the repellent.

juvenile sharks = experiment: Initial tonic immobility assays, mouth delivery by micropipette or syringe; format: in vivo; settings: introduced to the mouth using a micropipette or syringe
lemon sharks [8] = experiment: Tonic immobility, Micropipette Assay; format: in vivo, N. brevirostris; settings: juvenile lemon shark, micropipette
Method: as §1, §6, §7
Using a microliter syringe or microliter pipette, a bolus of test chemical can be directed precisely into one of the shark's nares, or its mouth. […] Olfactory repellents will terminate tonic immobility almost immediately when injected into a nare of the shark.
as §2, §5
Further because the Micropipette assays were often done serially on the same set of sharks, second and third doses of the repellent over time would be expected to evoke less of a reaction. Nevertheless, the small doses delivered to the shark in the Micropipette assay provide important data on whether a compound is a gustatory stimulant because the small dose may be delivered directly into the mouth of the shark. This eliminates any olfactory response that might be acting in concert with a gustatory response to terminate tonic immobility.

[9] = listed as crotonic acid solution

## Cc1cccnc1N [2-amino-3-picoline]
Caribbean reef sharks; cloud - co2, 500 mL
  T?: Y
Caribbean reef sharks
  Comments (effect on shark population): population decreased
Caribbean reef sharks; listed as 2-amino-3-picoline 95% cut to 10% w/w with desalinated water
  Comments (effect on shark population): population decrease

## Cc1c(N)c(=O)n(-c2ccccc2)n1C [4-aminoantipyrine]
Lemon sharks [1]
  Hd Syringe assays terminating tonic immobility: all assays terminated tonic immobility
Nurse sharks [2]
  Hd Syringe assays terminating tonic immobility: terminated
Blacktip sharks; blacktip sharks
  Syringe 3/5/10 assays with no response: no response
[3]
  Hd-Syringe Y (termination of tonic immobility), trials of trials: terminated tonic immobility in all tests
[3]; listed as 4-amino-antipyrine
  Hd-Syringe Y (termination of tonic immobility), trials of trials: five of five
[3]; listed as 4-amino-antipyrine (metapirazone)
  Hd-Syringe Y (termination of tonic immobility), trials of trials: 5/5

## O=C(O)CC(O)(CC(=O)O)C(=O)O [Citric acid 50% w/w, Citric acid]
Lemon sharks [1]
  Hd Syringe assays terminating tonic immobility: four of four
Nurse sharks [4]
  T? (termination of tonic immobility): R
Blacktip sharks; Table 24, blacktip shark, syringe 3/5/10 delivery, 6 ml, mouth longline
  T? (termination of tonic immobility): Y
[3]
  Hd-Syringe Y (termination of tonic immobility), trials of trials: 4/4
[5]
  Micropipette Y (termination of tonic immobility), trials of trials: 2/2

## c1ccncc1 [Pyridine, pyridine]
Nurse sharks [6]; nurse shark, about 500 microliters into the mouth
  Micropipette assay outcome: did not evoke a response
[7]
  Syringe 3/5/10 R (behavior response within tonic immobility), trials of trials: 1/4
  Syringe 3/5/10 Y (termination of tonic immobility), trials of trials: 3/4
[7]; listed as pyridine
  Syringe 3/5/10 R (behavior response within tonic immobility), trials of trials: one of four
  Syringe 3/5/10 Y (termination of tonic immobility), trials of trials: three of four
Juvenile sharks
  result of initial tonic immobility assays: terminated tonic immobility

## CC=CC(=O)O [crotonic acid solution (2-butenoic acid), 2-butenoic acid]
Nurse sharks [4]
  T? (termination of tonic immobility): Y and R
[7]
  Syringe 3/5/10 N (no response), trials of trials: 2/7
  Syringe 3/5/10 R (behavior response within tonic immobility), trials of trials: 1/7
  Syringe 3/5/10 Y (termination of tonic immobility), trials of trials: 4/7
[7]; [9]
  Syringe 3/5/10 N (no response), trials of trials: two of the seven
  Syringe 3/5/10 R (behavior response within tonic immobility), trials of trials: one of the seven
  Syringe 3/5/10 Y (termination of tonic immobility), trials of trials: four of the seven
[5]
  Micropipette Y (termination of tonic immobility), trials of trials: 2/2
[5]; lemon and nurse sharks
  screening result: shark repelling compounds

## CCCC(=O)O [n-Butyric Acid, n-butyric acid]
Lemon sharks [8]
  oral dose that terminated tonic immobility: no more than 100 microliters
Nurse sharks [6]; juvenile nurse shark, micropipette
  oral dose that terminated tonic immobility: no more than 400 microliters
[5]
  Micropipette Y (termination of tonic immobility), trials of trials: 2/2
[5]; listed as butyric acid
  Micropipette Y (termination of tonic immobility), trials of trials: termination of tonic immobility
[5]; juvenile lemon or nurse sharks
  mouth dose at which tonic immobility was terminated: 100 µL

Reference: patent publication US9456589B2, “Elasmobranch-repelling compounds and methods of use” (priority 2005, dated 2016)
